Experimental data from ChEMBL document CHEMBL1127148, “The squalestatins: novel inhibitors of squalene synthase. The optimal C1 chain-length requirements” (Bioorg Med Chem Lett, 1993).

Test system: Rattus norvegicus
Test: Tested for daily dose at which compound shows 50% reduction in serum cholesterol levels after oral administration
Assay type: functional

Row | Compound | Dose [mg/kg]
1 | C=C(CC[C@]12O[C@H](C(=O)O)[C@@](O)(C(=O)O)[C@](C(=O)O)(O1)[C@H](OC(=O)/C=C/[C@@H](C)C[C@@H](C)CC)[C@H]2O)[C@H](OC(C)=O)[C@@H](C)Cc1ccccc1 | 10

Biological target: T1, Squalene synthase (Rattus norvegicus, UniProt Q02769)
T1 sequence (Q02769 whole entry): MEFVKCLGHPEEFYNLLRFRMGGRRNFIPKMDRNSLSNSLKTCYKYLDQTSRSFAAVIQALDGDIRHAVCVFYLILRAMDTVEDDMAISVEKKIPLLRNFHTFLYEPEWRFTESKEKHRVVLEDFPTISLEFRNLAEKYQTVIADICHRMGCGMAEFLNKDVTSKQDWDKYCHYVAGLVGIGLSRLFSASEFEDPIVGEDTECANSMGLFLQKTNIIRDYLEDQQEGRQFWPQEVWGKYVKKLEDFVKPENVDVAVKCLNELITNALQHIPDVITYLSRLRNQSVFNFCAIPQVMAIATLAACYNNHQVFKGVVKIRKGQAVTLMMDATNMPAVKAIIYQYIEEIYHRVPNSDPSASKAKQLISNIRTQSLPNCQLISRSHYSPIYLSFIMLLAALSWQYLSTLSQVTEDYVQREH
Test: Inhibition of Squalene synthase activity in juvenile male rat liver microsomes
Design: species or system Microsome

Row | IC50 [nM] | Compound
2 | > 500 | CCCCCCC(=O)CCC[C@]12O[C@H](C(=O)O)[C@@](O)(C(=O)O)[C@](C(=O)O)(O1)[C@H](OC(=O)CC[C@@H](C)C[C@@H](C)CC)[C@H]2O
3 | > 500 | CC[C@H](C)C[C@H](C)CCC(=O)O[C@@H]1[C@@H](O)[C@@]2(CCCC(=O)Cc3ccccc3)O[C@H](C(=O)O)[C@@](O)(C(=O)O)[C@]1(C(=O)O)O2
4 | 56 | CC[C@H](C)C[C@H](C)CCC(=O)O[C@@H]1[C@@H](O)[C@@]2(CCCC(=O)CCc3ccccc3)O[C@H](C(=O)O)[C@@](O)(C(=O)O)[C@]1(C(=O)O)O2
5 | 5 | C=C(CC[C@]12O[C@H](C(=O)O)[C@@](O)(C(=O)O)[C@](C(=O)O)(O1)[C@H](OC(=O)/C=C/[C@@H](C)C[C@@H](C)CC)[C@H]2O)[C@H](O)[C@@H](C)Cc1ccccc1
6 | 152 | CC[C@H](C)C[C@H](C)CCC(=O)O[C@@H]1[C@@H](O)[C@@]2(CCCC(=O)CCCc3ccccc3)O[C@H](C(=O)O)[C@@](O)(C(=O)O)[C@]1(C(=O)O)O2
7 | 470 | CC[C@H](C)C[C@H](C)CCC(=O)O[C@@H]1[C@@H](O)[C@@]2(CCC(C)=O)O[C@H](C(=O)O)[C@@](O)(C(=O)O)[C@]1(C(=O)O)O2
8 | > 500 | CC[C@H](C)C[C@H](C)CCC(=O)O[C@@H]1[C@@H](O)[C@@]2(CCO)O[C@H](C(=O)O)[C@@](O)(C(=O)O)[C@]1(C(=O)O)O2
9 | 29 | CC[C@H](C)C[C@H](C)CCC(=O)O[C@@H]1[C@@H](O)[C@@]2(CCCC(=O)C(C)Cc3ccccc3)O[C@H](C(=O)O)[C@@](O)(C(=O)O)[C@]1(C(=O)O)O2 (stereo partly drawn)
10 | 48 | CC[C@H](C)C[C@H](C)CCC(=O)O[C@@H]1[C@@H](O)[C@@]2(CCC(C)C(=O)CCc3ccccc3)O[C@H](C(=O)O)[C@@](O)(C(=O)O)[C@]1(C(=O)O)O2 (stereo partly drawn)
11 | > 500 | CCCC(=O)CCC[C@]12O[C@H](C(=O)O)[C@@](O)(C(=O)O)[C@](C(=O)O)(O1)[C@H](OC(=O)CC[C@@H](C)C[C@@H](C)CC)[C@H]2O

Biological target: T1, Squalene synthase
Test: Tested in vitro for the inhibition of Squalene synthase activity, measured using juvenile male rat liver microsomes
Design: species or system Microsome

Row | IC50 [nM] | Compound
12 | 16 | CC[C@H](C)C[C@H](C)CCC(=O)O[C@@H]1[C@@H](O)[C@@]2(CCC(C)C(=O)[C@@H](C)Cc3ccccc3)O[C@H](C(=O)O)[C@@](O)(C(=O)O)[C@]1(C(=O)O)O2 (stereo in doubt)
13 | 5 | CC[C@H](C)C[C@H](C)CCC(=O)O[C@@H]1[C@@H](O)[C@@]2(CCC(=O)[C@H](O)[C@@H](C)Cc3ccccc3)O[C@H](C(=O)O)[C@@](O)(C(=O)O)[C@]1(C(=O)O)O2
14 | 63 | CC[C@H](C)C[C@H](C)CCC(=O)O[C@@H]1[C@@H](O)[C@@]2(CC/C(C)=C/[C@@H](C)Cc3ccccc3)O[C@H](C(=O)O)[C@@](O)(C(=O)O)[C@]1(C(=O)O)O2
15 | 130 | CC[C@H](C)C[C@H](C)CCC(=O)O[C@@H]1[C@@H](O)[C@@]2(CCC(C)C(=O)[C@@H](C)Cc3ccccc3)O[C@H](C(=O)O)[C@@](O)(C(=O)O)[C@]1(C(=O)O)O2 (single isomer, unassigned; isomer 2)
16 | 4 | CC[C@H](C)C[C@H](C)CCC(=O)O[C@@H]1[C@@H](O)[C@@]2(CCC(O)[C@H](O)[C@@H](C)Cc3ccccc3)O[C@H](C(=O)O)[C@@](O)(C(=O)O)[C@]1(C(=O)O)O2 (stereo partly drawn)
17 | 17 | CC[C@H](C)C[C@H](C)CCC(=O)O[C@@H]1[C@@H](O)[C@@]2(C/C=C(\C)[C@H](O)[C@@H](C)Cc3ccccc3)O[C@H](C(=O)O)[C@@](O)(C(=O)O)[C@]1(C(=O)O)O2
18 | 2 | C=C(CC[C@]12O[C@H](C(=O)O)[C@@](O)(C(=O)O)[C@](C(=O)O)(O1)[C@H](OC(=O)CC[C@@H](C)C[C@@H](C)CC)[C@H]2O)[C@H](O)[C@@H](C)Cc1ccccc1
